Results: US8299267B2, “(3-hydroxy-4-amino-butan-2-yl) -3- (2-thiazol-2-yl-pyrrolidine-1-carbonyl) benzamide derivatives and related compounds as beta-secretase inhibitors for treating” (CoMentis, Inc., priority 2007, dated 2012)

Key:
memapsin 2 = memapsin 2 (Homo sapiens, UniProt P56817); assay: Inhibition of memapsin 2 beta-secretase activity toward fluorogenic substrate FS-2; format: biochemical; conditions: memapsin 2, pH 4, 37° C., 20 minutes pre-incubation, substrate FS-2; read-out: M2Ki
Protocol: Potency of compounds were determined by measurement of their inhibition of memapsin 2 activity toward a fluorescent substrate. Kinetic inhibition experiments were performed using the procedure as described in Ermolieff, et al. (Biochemistry 39:12450-12456 (2000), the teachings of which are incorporated hereby in their entirety). Briefly, assays were performed at pH 4, 37° C., by pre-incubation of memapsin 2 enzyme with compound for 20 minutes. Activity measurements were initiated by addition of a fluorogenic substrate FS-2 (Bachem Americas, Torrance, Calif.) MCA-SEVNLDAEFK-DNP (SEQ ID NO.: 2). The substrate was derived from 10 amino acids of the human amyloid precursor protein (APP), with the Swedish variant amino acids at the beta-secretase cleavage site. The terminal amino acid was modified from arginine to lysine to facilitate derivatization with a functional group for detection by autofluorescence. The amino acid sequence of the “core” peptide of the substrate is SEVNLDAEFK (SEQ ID NO.: 3). The amino terminus was derivatized with (7-methoxycoumarin-4-yl)acetyl (MCA), and the epsilon amine of the lysine side chain of the terminal residue (K in sequence SEVNLDAEFK (SEQ ID NO.: 4)) was derivatized with 2,4-dinitrophenyl (DNP).

[1] = test system: Aβ production in Chinese hamster ovary cells that over-express human APP695 with the London and Swedish mutations; assay: Cellular Aβ IC50 determination (Aβ40 sandwich ELISA); format: cell-based; conditions: Cricetulus griseus; Aβ40 in CHO cells over-expressing human APP695, 24 h incubation
Protocol: The potency of compounds against memapsin 2 activity was determined in a cellular assay of Aβ production. […] Chinese hamster ovary cells that over-express human APP695 with the London and Swedish mutations were seeded in multi-well plates at 10% confluency. Compounds are dissolved in DMSO to concentrations near 1 mM, and diluted into culture media to a final concentration near 4 μM (final 0.4% DMSO). Compounds were diluted serially and applied to cells in multi-well plates 48 h after seeding. Incubation was continued in 5% CO2 at 37° C. for 24 h. Aliquots were removed and assayed for Aβ40 content using a sandwich ELISA (BioSource International). Amount of Aβ40 over the range of concentration of compounds, relative to control incubations, were fit to a 4-parameter IC50 model.

Chain of memapsin 2 (P56817 46-501): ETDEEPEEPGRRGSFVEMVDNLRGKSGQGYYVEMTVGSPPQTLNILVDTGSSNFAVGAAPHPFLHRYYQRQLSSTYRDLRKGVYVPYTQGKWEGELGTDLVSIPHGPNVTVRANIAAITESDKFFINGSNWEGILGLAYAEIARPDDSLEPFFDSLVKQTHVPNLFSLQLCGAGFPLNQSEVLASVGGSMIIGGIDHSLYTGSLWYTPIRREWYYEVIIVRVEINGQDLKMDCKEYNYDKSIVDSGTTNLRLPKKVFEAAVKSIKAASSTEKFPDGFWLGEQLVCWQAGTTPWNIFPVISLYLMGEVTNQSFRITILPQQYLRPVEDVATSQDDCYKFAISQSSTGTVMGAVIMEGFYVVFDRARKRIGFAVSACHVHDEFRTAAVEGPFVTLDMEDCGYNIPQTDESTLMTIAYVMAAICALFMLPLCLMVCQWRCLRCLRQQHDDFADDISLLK

SMILES	Ki (memapsin 2)	IC50 [1]
Cc1csc([C@H]2CCCN2C(=O)c2cncc(C(=O)N[C@@H](Cc3ccccc3)[C@H](O)CNCc3cncc(C(C)(C)F)c3)c2)n1 [Compound 44, N-((2S,3R)-4-((5-(2-fluoropropan-2-yl)pyridin-3-yl)methylamino)-3-hydroxy-1-phenylbutan-2-yl)-5-((R)-2-(4-methylthiazol-2-yl)pyrrolidine-1-carbonyl)nicotinamide]	< 100 nM	< 300 nM
Cc1coc([C@H]2CCCN2C(=O)c2cncc(C(=O)N[C@@H](Cc3ccccc3)[C@H](O)CNCc3cncc(C(C)C)c3)c2)n1 [Compound 71, N-((2S,3R)-3-hydroxy-4-((5-isopropylpyridin-3-yl)methylamino)-1-phenylbutan-2-yl)-5-((R)-2-(4-methyloxazol-2-yl)pyrrolidine-1-carbonyl)nicotinamide]	< 100 nM	< 300 nM
Cc1cc(C(=O)N[C@@H](Cc2ccccc2)[C@H](O)CNCc2cccc(C(F)(F)F)c2)cc(C(=O)N2CCC[C@@H]2c2nc(C)co2)n1 [Compound 84, N-((2S,3R)-3-hydroxy-1-phenyl-4-(3-(trifluoromethyl)benzylamino)butan-2-yl)-2-methyl-6-((R)-2-(4-methyloxazol-2-yl)pyrrolidine-1-carbonyl)isonicotinamide]	< 100 nM	< 300 nM
Cc1csc([C@H]2CCCN2C(=O)c2cc(C(=O)N[C@@H](Cc3ccccc3)[C@H](O)CNCc3cccc(C(F)(F)F)c3)nc(N(C)C)c2)n1 [Compound 81, 6-(dimethylamino)-N-((2S,3R)-3-hydroxy-1-phenyl-4-(3-(trifluoromethyl)benzylamino)butan-2-yl)-4-((R)-2-(4-methylthiazol-2-yl)pyrrolidine-1-carbonyl)picolinamide]	< 100 nM	< 300 nM
Cc1csc([C@H]2CCCN2C(=O)c2cc(C(=O)N[C@@H](Cc3ccccc3)[C@H](O)CNCc3cccc(C(F)(F)F)c3)ccn2)n1 [Compound 64, N-((2S,3R)-3-hydroxy-1-phenyl-4-(3-(trifluoromethyl)benzylamino)butan-2-yl)-2-((R)-2-(4-methylthiazol-2-yl)pyrrolidine-1-carbonyl)isonicotinamide]	< 100 nM	< 300 nM
Cc1csc([C@H]2CCCN2C(=O)c2cc(C(=O)N[C@@H](Cc3ccccc3)[C@H](O)CNCc3cncc(C(C)C)c3)cc(N(C)C)c2)n1 [Compound 29, 3-(dimethylamino)-N-((2S,3R)-3-hydroxy-4-((5-isopropylpyridin-3-yl)methylamino)-1-phenylbutan-2-yl)-5-((R)-2-(4-methylthiazol-2-yl)pyrrolidine-1-carbonyl)benzamide]	< 100 nM	< 300 nM
Cc1csc([C@H]2CCCN2C(=O)c2cncc(C(=O)N[C@@H](Cc3ccccc3)[C@H](O)CNCc3cncc(C(C)C)c3)c2)n1 [Compound 27, N-((2S,3R)-3-hydroxy-4-((5-isopropylpyridin-3-yl)methylamino)-1-phenylbutan-2-yl)-5-((R)-2-(4-methylthiazol-2-yl)pyrrolidine-1-carbonyl)nicotinamide]	< 100 nM	< 300 nM
Cc1csc([C@H]2CCCN2C(=O)c2cccc(C(=O)N[C@@H](Cc3ccccc3)[C@H](O)CN[C@H](C)c3cncc(C(C)C)c3)c2)n1 [Compound 46, N-((2S,3R)-3-hydroxy-4-((R)-1-(5-isopropylpyridin-3-yl)ethylamino)-1-phenylbutan-2-yl)-3-((R)-2-(4-methylthiazol-2-yl)pyrrolidine-1-carbonyl)benzamide]	< 100 nM	< 300 nM
Cc1csc([C@H]2CCCN2C(=O)c2cccc(C(=O)N[C@@H](Cc3ccccc3)[C@H](O)CNCc3cc(C(C)C)no3)c2)n1 [Compound 99, N-((2S,3R)-3-hydroxy-4-((3-isopropylisoxazol-5-yl)methylamino)-1-phenylbutan-2-yl)-3-((R)-2-(4-methylthiazol-2-yl)pyrrolidine-1-carbonyl)benzamide]	< 100 nM	–
Cc1csc([C@H]2CCCN2C(=O)c2cc(C(=O)N[C@@H](Cc3ccccc3)[C@H](O)CNCc3cncc(C(C)(C)F)c3)cc(C(F)F)c2)n1 [Compound 58, 3-(difluoromethyl)-N-((2S,3R)-4-((5-(2-fluoropropan-2-yl)pyridin-3-yl)methylamino)-3-hydroxy-1-phenylbutan-2-yl)-5-((R)-2-(4-methylthiazol-2-yl)pyrrolidine-1-carbonyl)benzamide]	< 100 nM	–
Cc1coc([C@H]2CCCN2C(=O)c2cccc(C(=O)N[C@@H](Cc3ccccc3)[C@H](O)CNCc3cncc(C(C)(C)C)c3)c2)n1 [Compound 111, N-((2S,3R)-4-((5-tert-butylpyridin-3-yl)methylamino)-3-hydroxy-1-phenylbutan-2-yl)-3-((R)-2-(4-methyloxazol-2-yl)pyrrolidine-1-carbonyl)benzamide]	< 100 nM	–
CCn1cc(CNC[C@@H](O)[C@H](Cc2ccccc2)NC(=O)c2cccc(C(=O)N3CCC[C@@H]3c3nc(C)co3)c2)cn1 [Compound 109, N-((2S,3R)-4-((1-ethyl-1H-pyrazol-4-yl)methylamino)-3-hydroxy-1-phenylbutan-2-yl)-3-((R)-2-(4-methyloxazol-2-yl)pyrrolidine-1-carbonyl)benzamide]	101 to 200 nM	–
Cc1coc([C@H]2CCCN2C(=O)c2cncc(C(=O)N[C@@H](Cc3ccccc3)[C@H](O)CNCc3cccc(C(F)(F)F)c3)c2)n1 [Compound 72, N-((2S,3R)-3-hydroxy-1-phenyl-4-(3-(trifluoromethyl)benzylamino)butan-2-yl)-5-((R)-2-(4-methyloxazol-2-yl)pyrrolidine-1-carbonyl)nicotinamide]	< 100 nM	–

More lines, now with the values ahead:

Ki (memapsin 2)	IC50 [1]	SMILES
< 100 nM	< 300 nM	Cc1csc([C@H]2CCCN2C(=O)c2cc(C(=O)N[C@@H](Cc3ccccc3)[C@H](O)CNCc3cncc(C(C)(F)F)c3)cc(N(C)C)c2)n1 [Compound 40, N-((2S,3R)-4-((5-(1,1-difluoroethyl)pyridin-3-yl)methylamino)-3-hydroxy-1-phenylbutan-2-yl)-3-(dimethylamino)-5-((R)-2-(4-methylthiazol-2-yl)pyrrolidine-1-carbonyl)benzamide]
< 100 nM	< 300 nM	Cc1csc([C@H]2CCCN2C(=O)c2cc(CF)cc(C(=O)N[C@@H](Cc3ccccc3)[C@H](O)CNCc3cncc(C(F)(F)F)c3)c2)n1 [Compound 51, 3-(fluoromethyl)-N-((2S,3R)-3-hydroxy-1-phenyl-4-((5-(trifluoromethyl)pyridin-3-yl)methylamino)butan-2-yl)-5-((R)-2-(4-methylthiazol-2-yl)pyrrolidine-1-carbonyl)benzamide]
< 100 nM	< 300 nM	Cc1csc([C@H]2CCCN2C(=O)c2cccc(C(=O)N[C@@H](Cc3ccccc3)[C@H](O)CNCc3cc(C)on3)c2)n1 [Compound 66, N-((2S,3R)-3-hydroxy-4-((5-methylisoxazol-3-yl)methylamino)-1-phenylbutan-2-yl)-3-((R)-2-(4-methylthiazol-2-yl)pyrrolidine-1-carbonyl)benzamide]
< 100 nM	< 300 nM	Cc1csc([C@H]2CCCN2C(=O)c2cc(C(=O)N[C@@H](Cc3ccccc3)[C@H](O)CNCc3cncc(C(C)C)c3)cc(-c3cnco3)c2)n1 [Compound 33, N-((2S,3R)-3-hydroxy-4-((5-isopropylpyridin-3-yl)methylamino)-1-phenylbutan-2-yl)-3-((R)-2-(4-methylthiazol-2-yl)pyrrolidine-1-carbonyl)-5-(oxazol-5-yl)benzamide]
< 100 nM	< 300 nM	Cc1csc([C@H]2CCCN2C(=O)c2cc(C(=O)N[C@@H](Cc3ccccc3)[C@H](O)CNCc3cccc(C(F)(F)F)c3)cc(C(F)F)c2)n1 [Compound 57, 3-(difluoromethyl)-N-((2S,3R)-3-hydroxy-1-phenyl-4-(3-(trifluoromethyl)benzylamino)butan-2-yl)-5-((R)-2-(4-methylthiazol-2-yl)pyrrolidine-1-carbonyl)benzamide]
< 100 nM	< 300 nM	Cc1coc([C@H]2CCCN2C(=O)c2cc(C(=O)N[C@@H](Cc3ccccc3)[C@H](O)CNCc3cncc(C(C)C)c3)cc(N(C)C)c2)n1 [Compound 92, 3-(dimethylamino)-N-((2S,3R)-3-hydroxy-4-((5-isopropylpyridin-3-yl)methylamino)-1-phenylbutan-2-yl)-5-((R)-2-(4-methyloxazol-2-yl)pyrrolidine-1-carbonyl)benzamide]
< 100 nM	–	CCn1cc(CNC[C@@H](O)[C@H](Cc2ccccc2)NC(=O)c2cc(C)cc(C(=O)N3CCC[C@@H]3c3nc(C)co3)c2)cn1 [Compound 110, N-((2S,3R)-4-((1-ethyl-1H-pyrazol-4-yl)methylamino)-3-hydroxy-1-phenylbutan-2-yl)-3-methyl-5-((R)-2-(4-methyloxazol-2-yl)pyrrolidine-1-carbonyl)benzamide]
